From PubChem BioAssay AID248 (DTP/NCI, 2004)
Inconclusive results and toxic doses are left out. Rule as the data show it: active = T/C of 150% or more; inactive = T/C below 125%.

Test system: L1210 leukemia ip in BDF1 mice, survival T/C
Assay: NCI In Vivo Anticancer Drug Screen. Data for tumor model L1210 Leukemia (intraperitoneal) in B6D2F1 (BDF1) mice
Conditions: endpoint: mean survival time, higher = longer survival
Summary of the method: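 Read-out is survival time, reported as the treated-group measurement over the vehicle-control measurement.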

[1] = dose: 100.0 mg/kg/injection, schedule: Q01DX001 (ip), vehicle: saline
[2] = dose: 400.0 mg/kg/injection, schedule: Q01DX001 (ip), vehicle: saline
[3] = dose: 100.0 mg/kg/injection, schedule: Q01DX009 (ip), vehicle: saline with Tween-80
[4] = dose: 200.0 mg/kg/injection, schedule: Q01DX009 (ip), vehicle: saline with Tween-80
[5] = dose: 100.0 mg/kg/injection, schedule: Q01DX009 (ip), vehicle: Klucel (hydroxypropylcellulose) (HPC)
[6] = dose: 100.0 mg/kg/injection, schedule: Q04DX003 (ip), vehicle: Klucel (hydroxypropylcellulose) (HPC)
[7] = dose: 200.0 mg/kg/injection, schedule: Q01DX009 (ip), vehicle: Klucel (hydroxypropylcellulose) (HPC)
[8] = dose: 200.0 mg/kg/injection, schedule: Q04DX003 (ip), vehicle: Klucel (hydroxypropylcellulose) (HPC)
[9] = dose: 400.0 mg/kg/injection, schedule: Q04DX003 (ip), vehicle: Klucel (hydroxypropylcellulose) (HPC)

Measured: T/C

CC(=O)Nc1ccc(OCc2ccccc2)cc1[N+](=O)[O-]
inactive: dose: 50.0 mg/kg/injection, schedule: Q01DX001 (ip), vehicle: saline 95 % of control | [1] 101 % of control | dose: 200.0 mg/kg/injection, schedule: Q01DX001 (ip), vehicle: saline 98 % of control | [2] 93 % of control

Cc1ccc(OS(=O)(=O)c2cccc([N+](=O)[O-])c2)cc1
inactive: dose: 100.0 mg/kg/injection, schedule: Q04DX003 (ip), vehicle: saline with Tween-80 102 % of control | dose: 200.0 mg/kg/injection, schedule: Q04DX003 (ip), vehicle: saline with Tween-80 97 % of control | dose: 400.0 mg/kg/injection, schedule: Q04DX003 (ip), vehicle: saline with Tween-80 100 % of control

CCOC(=O)c1ccnc2ccc(OC)cc12
inactive: dose: 100.0 mg/kg/injection, schedule: Q04DX002 (ip), vehicle: saline with Tween-80 91 % of control | dose: 200.0 mg/kg/injection, schedule: Q04DX002 (ip), vehicle: saline with Tween-80 100 % of control | dose: 400.0 mg/kg/injection, schedule: Q04DX002 (ip), vehicle: saline with Tween-80 104 % of control

CCC1CN2CCc3cc(OC)c(OC)cc3C2CC1O (stereo not given)
inactive: [3] 97 % of control | [4] 110 % of control

C=C1CC2OC(=O)C(=C)C2C(OC(=O)c2ccccc2)/C=C(\C)CCC1OC(=O)c1ccccc1 (stereo not given)
inactive: dose: 100.0 mg/kg/injection, schedule: Q04DX002 (ip), vehicle: Klucel (hydroxypropylcellulose) (HPC) 108 % of control | dose: 200.0 mg/kg/injection, schedule: Q04DX002 (ip), vehicle: Klucel (hydroxypropylcellulose) (HPC) 91 % of control | dose: 400.0 mg/kg/injection, schedule: Q04DX002 (ip), vehicle: Klucel (hydroxypropylcellulose) (HPC) 97 % of control

CC(C)c1ccc2ccccc2c1
inactive: [3] 95 % of control | [4] 107 % of control

O=C1CC(NCCO)C(=O)NN1 (stereo not given)
inactive: dose: 100.0 mg/kg/injection, schedule: Q01DX009 (ip), vehicle: saline 101 % of control | dose: 200.0 mg/kg/injection, schedule: Q01DX009 (ip), vehicle: saline 97 % of control | dose: 400.0 mg/kg/injection, schedule: Q01DX009 (ip), vehicle: saline 100 % of control

CCCCCCCCCCNC(=O)C[n+]1cccc(C(=O)Nc2ccc(Cl)cc2)c1
inactive: dose: 6.25 mg/kg/injection, schedule: Q01DX009 (ip), vehicle: acetone 97 % of control | dose: 12.5 mg/kg/injection, schedule: Q01DX009 (ip), vehicle: acetone 92 % of control | dose: 12.5 mg/kg/injection, schedule: Q04DX003 (ip), vehicle: saline 108 % of control | dose: 25.0 mg/kg/injection, schedule: Q04DX003 (ip), vehicle: saline 96 % of control

COc1ccc(N=Cc2ccc(C=Nc3ccc(OC)cc3)cc2)cc1
inactive: dose: 25.0 mg/kg/injection, schedule: Q04DX003 (ip), vehicle: Klucel (hydroxypropylcellulose) (HPC) 96 % of control | dose: 50.0 mg/kg/injection, schedule: Q01DX009 (ip), vehicle: Klucel (hydroxypropylcellulose) (HPC) 90 % of control | dose: 50.0 mg/kg/injection, schedule: Q04DX003 (ip), vehicle: Klucel (hydroxypropylcellulose) (HPC) 98 % of control | [5] 97 % of control | [6] 96 % of control | [7] 88 % of control

O=c1sc2ccccc2n1CCSCCn1c(=S)sc2ccccc21
inactive: [1] 90 % of control | [2] 93 % of control

CCOC(=O)C1C2OC(=O)C(C(=O)C2C(C2CC=CCC2)N(CCCl)CCCl)C1c1ccc(OC(C)=O)cc1 (stereo not given)
inactive: [6] 101 % of control | [8] 97 % of control | [9] 98 % of control

N#CC(/C=C/c1ccco1)Nc1ccccc1C(N)=O (stereo not given)
inactive: [5] 121 % of control | [6] 93 % of control | [7] 121 % of control | [8] 94 % of control | [9] 100 % of control
